Activity calls are given as the source filed them. No cut-off for these calls is given here. Where a SMILES comes first, the peptide text is derived from it.

A word on the inhibition: it is how much of the control response was suppressed. As usually defined, the EC50 is the concentration that produces a half-maximal response. As usually defined, the AUC(0-t) is exposure summed from dosing to a finite time, without extrapolation to infinity. Low values mean low exposure, high ones high exposure.

Data set [1] addresses Proteinase-activated receptor 2 (Homo sapiens) (UniProt P55085). Nature of the data set: Agonist activity at PAR2 in human HT-29 cells assessed as increase in intracellular calcium release at 10 uM incubated for 30 mins measured for 60 secs by Fluo-3 AM dye based FLIPR assay relative to 2f-LIGRLO-NH2. The class given is functional, cell-based. In general terms: Calcium assays in cells follow changes in intracellular calcium, usually with a dye or a luminescent sensor.

The target is the same in data set [2]. Description: Antagonist activity at PAR2 in human HT-29 cells assessed as inhibition of 2f-LIGRLO-NH2-stimulated intracellular calcium release at 10 uM preincubated for 30 mins followed by 2f-LIGRLO-NH2 stimulation measured for 60 secs by Fluo-3 AM dye based FLIPR assay relative to control. The class given is functional, cell-based.
A short description of data set [3]: Elimination half life in Wistar rat liver homogenate at 10 uM by LC/MS/MS analysis. The class given is ADME, tissue-based. Particulars: read-out: beta t1/2.
Data set [4] is described as follows: Half life in Wistar rat plasma at 10 uM by LC/MS/MS analysis. The class given is ADME, cell-free.
Data set [5] addresses T1, Proteinase-activated receptor 2 (Homo sapiens, UniProt P55085).
T1 sequence (P55085 whole entry): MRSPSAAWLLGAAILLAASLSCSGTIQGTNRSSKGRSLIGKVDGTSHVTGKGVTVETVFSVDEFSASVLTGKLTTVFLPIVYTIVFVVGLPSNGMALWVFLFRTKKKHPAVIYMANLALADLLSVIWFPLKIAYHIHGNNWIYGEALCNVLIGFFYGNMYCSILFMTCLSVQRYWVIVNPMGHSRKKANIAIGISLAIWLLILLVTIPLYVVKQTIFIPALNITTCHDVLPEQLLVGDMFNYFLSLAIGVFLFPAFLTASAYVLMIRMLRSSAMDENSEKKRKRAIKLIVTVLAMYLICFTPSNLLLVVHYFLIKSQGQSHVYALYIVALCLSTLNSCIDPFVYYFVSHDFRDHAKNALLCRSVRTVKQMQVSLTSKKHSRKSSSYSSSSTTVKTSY
Nature of the data set: Agonist activity at PAR2 in human HT-29 cells assessed as increase in intracellular calcium release incubated for 30 mins measured for 60 secs by Fluo-3 AM dye based FLIPR assay relative to 2f-LIGRLO-NH2. The class given is functional, cell-based.

A short description of data set [6]: Stability in Wistar rat plasma at 10 uM measured up to 3 hrs by LC/MS/MS analysis. The class given is ADME, cell-free. As to conditions: read-out: Stability.
Data set [7] addresses T1, Proteinase-activated receptor 2. Nature of the data set: Antagonist activity at PAR2 in human HT-29 cells assessed as inhibition of 2f-LIGRLO-NH2-stimulated intracellular calcium release preincubated for 30 mins followed by 2f-LIGRLO-NH2 stimulation measured for 60 sec by Fluo-3 AM dye based FLIPR assay. The class given is functional, cell-based.
For data set [8] the target is unchanged. Description: Antagonist activity at PAR2 in human HT-29 cells assessed as inhibition of endogenous trypsin-stimulated intracellular calcium release by Fluo-3 AM dye based FLIPR assay. The class given is functional, cell-based.
Data set [9] concerns Rattus norvegicus. Description: Antiinflammatory activity in Wistar rat acute paw edema model assessed as inhibition of 2f-LIGRLO-NH2-induced […] swelling at 10 mg/kg administered via oral gavage for 2 hrs followed by 2f-LIGRLO-NH2 addition measured up to 3 hrs. The class given is functional, organism-based.
Data set [10] in a line: Solubility of compound. The class given is physicochemical.
The nature of data set [11]: AUC (0 to 6 hrs) in Wistar rat at 10 mg/kg, po administered via gavage. The class given is ADME, organism-based. More on the design: time < 6 hr, dose 10 mg/kg, route oral. As to conditions: in vivo.
The nature of data set [12]: Time at which maximum plasma concentration stays above 2 times in vitro PAR2 IC50 in Wistar rat at 10 mg/kg, po administered via gavage. The class given is ADME, organism-based. As to conditions: in vivo.

`CC[C@H](C)[C@H](NC(=O)[C@H](CC1CCCCC1)NC(=O)c1ccno1)C(=O)N1CCC(NC(C)=O)(c2ccccc2)CC1`: the Activity in data set [1] stood at 81%.

On to `CC[C@H](C)[C@H](NC(=O)[C@H](CC1CCCCC1)NC(=O)c1nc[nH]n1)C(=O)N1CCC2(C=Cc3ccccc32)CC1`, for which the inhibition in [2] was 43%.

In the case of `CC[C@H](C)[C@H](NC(=O)[C@H](CC1CCCCC1)NC(=O)c1ccno1)C(=O)N1CCC(c2ccc(OC)cc2)CC1`, the inhibition in data set [2] fell in the range of 43 to 69%.

Consider `CC[C@H](C)[C@H](NC(=O)[C@H](CC1CCCCC1)NC(=O)c1ccno1)C(=O)N1CCC(c2cc(OC)ccc2OC)CC1`, for which, in data set [2], the inhibition was in the range of 43 to 69%.

Turning to `CC[C@H](C)[C@H](NC(=O)[C@H](CC1CCCCC1)NC(=O)c1ccon1)C(=O)N1CCC2(C=Cc3ccccc32)CC1`, in data set [2], the inhibition amounted to 27%. Also, the Activity in data set [1] was 21%.

On to `CC[C@H](C)[C@H](NC(=O)[C@H](CC(C)C)NC(=O)[C@@H](N)CO)C(=O)NCC(=O)N[C@@H](CCCNC(=N)N)C(=O)N[C@@H](CC(C)C)C(N)=O` (H-SLIGRL-NH2), for which the half-life at 10 µM in data set [3] is 15 min; in data set [4], 20 min.

Turning to `CC[C@H](C)[C@H](NC(=O)[C@H](CC1CCCCC1)NC(=O)c1ccno1)C(=O)N1CCC2(CC1)c1ccccc1C1OC12` (some centres undefined), the Activity in [1] worked out at 65%. Further, the EC50 in data set [5] was 0.7 to 1.8 µM.

For `C[C@@H](O)[C@H](NC(=O)[C@H](CC1CCCCC1)NC(=O)c1ccno1)C(=O)N1CCC2(C=Cc3ccccc32)CC1`, the Activity in [1] fell in the range of 53 to 81%.

As for `O=C(N[C@@H](CC1CCCCC1)C(=O)N[C@@H](CC1CCCCC1)C(=O)N1CCC2(C=Cc3ccccc32)CC1)c1ccno1`, the inhibition in data set [2] was in the range of 10 to 16%.

Take `NC(=O)C[C@H](NC(=O)[C@H](CC1CCCCC1)NC(=O)c1ccno1)C(=O)N1CCC2(C=Cc3ccccc32)CC1`: the Activity in data set [1] is 53 to 81%.

In the case of `CC[C@H](C)[C@H](NC(=O)[C@H](CC1CCCCC1)NC(=O)c1ccno1)C(=O)N1CCC(c2ccc(Cl)cc2)CC1`, the inhibition in data set [2] is 43 to 69%.

With `NCC[C@H](NC(=O)[C@H](CC1CCCCC1)NC(=O)c1ccno1)C(=O)N1CCC2(C=Cc3ccccc32)CC1`, the Activity in data set [1] was found to be 11%.

`CC[C@H](C)[C@H](NC(=O)[C@H](CC1CCCCC1)NC(=O)c1ccno1)C(=O)N1CCC2(CC1)OC(=O)c1ccccc12`: in data set [1], the Activity fell in the range of 62 to 70%. In data set [5], the EC50 was 0.7 to 1.8 µM.

For `CC[C@H](C)[C@H](NC(=O)[C@H](CC1CCCCC1)NC(=O)c1cc(N)n[nH]1)C(=O)N1CCC2(C=Cc3ccccc32)CC1`, the Activity in data set [1] was 26%.

For the compound `CC[C@H](C)[C@H](NC(=O)[C@H](CC1CCCCC1)NC(=O)c1ccno1)C(=O)N1CC[C@H]2CCCC[C@H]2[C@H]1C(=O)NC(C)(C)C`, the inhibition in data set [2] was 38%.

For `CC[C@H](C)[C@H](NC(=O)[C@H](CC1CCCCC1)NC(=O)c1ccno1)C(=O)N1CCC2(C=Cc3ccccc32)CC1`, in data set [6], the remaining at 3 h, 10 µM is more than 75%. Moreover, the half-life at 10 µM in data set [3] amounted to 60 min. Also, the inhibition in [2] was determined as 92%. Further, the IC50 in data set [7] (read-out: IC50) is 1.1 to 1.7 µM; in data set [7] (read-out: pIC50 (converted)) it was 1.58 µM; in data set [8], 3.6 µM.

As to `CC[C@H](C)[C@H](NC(=O)[C@H](CC1CCCCC1)NC(=O)c1ccno1)C(=O)N1CCCC[C@H]1C(=O)NC(C)(C)C`, the inhibition in data set [2] was 64%.

Take `CC[C@H](C)[C@H](NC(=O)[C@H](CC1CCCCC1)NC(=O)c1ccno1)C(=O)N1CCN(c2ccccc2)CC1`: in data set [1], the Activity is 30 to 50%.

As to `CC[C@H](C)[C@H](NC(=O)[C@H](CC1CCCCC1)NC(=O)c1cc(N)no1)C(=O)N1CCC2(C=Cc3ccccc32)CC1`, in [6], the remaining at 3 h, 10 µM is more than 75%. Moreover, in [3], the half-life at 10 µM came out at 15 min. The inhibition in data set [2] came out at 91%. The inhibition result in [9] is “Active”. Further, the solubility entry in data set [10] is listed as “Soluble”.

Consider `CC(C)(NC(=O)[C@H](CC1CCCCC1)NC(=O)c1ccno1)C(=O)N1CCC2(C=Cc3ccccc32)CC1`, for which the inhibition in [2] lay within 10 to 16%.

For the compound `CC[C@H](C)[C@H](NC(=O)[C@H](CC1CCCCC1)NC(=O)c1c[nH]cn1)C(=O)N1CCC2(C=Cc3ccccc32)CC1`, the inhibition in data set [2] was determined as 53%. The IC50 in [7] (read-out: IC50) was 3.1 µM. Besides, the solubility entry in data set [10] is recorded as “Soluble”.

Turning to `CC(C)(C)[C@H](NC(=O)[C@H](CC1CCCCC1)NC(=O)c1ccno1)C(=O)N1CCC2(C=Cc3ccccc32)CC1`, the inhibition in [2] was in the range of 10 to 16%.

For `CC[C@H](C)[C@H](NC(=O)[C@H](CC1CCCCC1)NC(=O)c1ccno1)C(=O)N1CCC2(CCc3ccccc3O2)CC1`, in data set [2], the inhibition came to 77%. The IC50 in data set [7] (read-out: IC50) was found to be 1.9 µM.

`CC[C@H](C)[C@H](NC(=O)[C@H](CC1CCCCC1)NC(=O)c1ccno1)C(=O)N1CCN(c2ccc(F)cc2)CC1`: the Activity in data set [1] was 30 to 50%.

For `CC[C@H](C)[C@H](NC(=O)[C@H](CC1CCCCC1)NC(=O)c1ccno1)C(=O)N1CCC2(CC1)CC(=O)c1ccccc1O2`, the Activity in data set [1] was 62 to 70%. For the same compound, in data set [5], the concentration giving a half-maximal response (EC50) fell in the range of 0.7 to 1.8 µM.

As for `CC[C@H](C)[C@H](NC(=O)[C@H](CC1CCCCC1)NC(=O)c1cscn1)C(=O)N1CCC2(C=Cc3ccccc32)CC1`, the inhibition in data set [2] worked out at 70%.

Regarding `CC[C@H](C)[C@H](NC(=O)[C@H](CC1CCCCC1)NC(=O)c1ccno1)C(=O)N1CCC(c2ccccc2C(F)(F)F)CC1`, in data set [2], the inhibition fell in the range of 43 to 69%.

Turning to `CO[C@H](C)[C@H](NC(=O)[C@H](CC1CCCCC1)NC(=O)c1ccno1)C(=O)N1CCC2(C=Cc3ccccc32)CC1`, the Activity in data set [1] is 53 to 81%.

On to `CC[C@H](C)[C@H](NC(=O)[C@H](CC1CCCCC1)NC(=O)c1ccno1)C(=O)N1CCN(Cc2ccc(F)cc2)CC1`, for which the Activity in data set [1] was in the range of 30 to 50%.

For `CC[C@H](C)[C@H](NC(=O)[C@H](CC1CCCCC1)NC(=O)c1ccno1)C(=O)N1CCC(O)(c2ccc(C(F)(F)F)cc2C(F)(F)F)CC1`, the inhibition in data set [2] was in the range of 43 to 69%.

For `O=C(N[C@@H](CC1CCCCC1)C(=O)N[C@@H](Cc1cnc[nH]1)C(=O)N1CCC2(C=Cc3ccccc32)CC1)c1ccno1`, the Activity in data set [1] fell in the range of 53 to 81%.

For the compound `CC[C@H](C)[C@H](NC(=O)[C@H](CC1CCCCC1)NC(=O)c1ccno1)C(=O)N1CCC(c2ccccc2)CC1`, the remaining at 3 h, 10 µM in data set [6] was more than 75%. For the same compound, the half-life at 10 µM in data set [3] came out at 30 min. Further, the inhibition in [2] is 93%. The same compound yielded an AUC(0-t) at 6 h in data set [11] of 1960 ng·h/mL. Further, the Time in [12] lay within 2 to 3 h. The inhibition entry in data set [9] is “Active”.

With `CC[C@H](C)[C@H](NC(=O)[C@H](CC1CCCCC1)NC(=O)c1ccno1)C(=O)N1CCc2cc(OC)c(OC)cc2C1`, the Activity in data set [1] was 65%.

In the case of `CC[C@H](C)[C@H](NC(=O)[C@H](CC1CCCCC1)NC(=O)c1cc(CN)no1)C(=O)N1CCC2(C=Cc3ccccc32)CC1`, the inhibition in data set [2] stood at 62%. Also, the figures for the IC50 in data set [7] (read-out: IC50) and in [7] (read-out: pIC50 (converted)) were 8.9 µM and 10 µM, respectively. Besides, the solubility entry in data set [10] is “Soluble”.
